Reference: ChEMBL document CHEMBL1201862, “PubChem BioAssay data set” (2004)
Activity calls are given as the source filed them.

Legend:
[1] = Trypanosoma cruzi growth suppression in host cells – NIH3T3 host cells, beta-gal luminescence, confirmation (AID 2044); format: functional, cell-based;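 note: intracellular parasites grown in NIH/3T3 mouse fibroblasts as host cells; luminescent beta-galactosidase reporter signal from transgenic T. cruzi replicating inside host cells; inhibitors lower the luminescence signal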
[2] = NIH3T3 cell viability loss – ATP luminescence, mouse fibroblasts, counter-screen, dose response (AID 2010); format: functional, cell-based;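 note: cells exposed to compound for about 90 hours before reading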
[3] = M. tuberculosis H37Rv growth inhibitors, H37Rv strain (AID 1626); format: functional
Aminopeptidase N = target: T1, Aminopeptidase N (Plasmodium falciparum FcB1/Columbia, UniProt O96935); experiment: malaria alanyl aminopeptidase activity blockers – biochemical, fluorogenic H-Leu-NHMec substrate, 1536-well (AID 1445); design: species or system Plasmodium falciparum 3D7, 3D7
T1 sequence (O96935 whole entry): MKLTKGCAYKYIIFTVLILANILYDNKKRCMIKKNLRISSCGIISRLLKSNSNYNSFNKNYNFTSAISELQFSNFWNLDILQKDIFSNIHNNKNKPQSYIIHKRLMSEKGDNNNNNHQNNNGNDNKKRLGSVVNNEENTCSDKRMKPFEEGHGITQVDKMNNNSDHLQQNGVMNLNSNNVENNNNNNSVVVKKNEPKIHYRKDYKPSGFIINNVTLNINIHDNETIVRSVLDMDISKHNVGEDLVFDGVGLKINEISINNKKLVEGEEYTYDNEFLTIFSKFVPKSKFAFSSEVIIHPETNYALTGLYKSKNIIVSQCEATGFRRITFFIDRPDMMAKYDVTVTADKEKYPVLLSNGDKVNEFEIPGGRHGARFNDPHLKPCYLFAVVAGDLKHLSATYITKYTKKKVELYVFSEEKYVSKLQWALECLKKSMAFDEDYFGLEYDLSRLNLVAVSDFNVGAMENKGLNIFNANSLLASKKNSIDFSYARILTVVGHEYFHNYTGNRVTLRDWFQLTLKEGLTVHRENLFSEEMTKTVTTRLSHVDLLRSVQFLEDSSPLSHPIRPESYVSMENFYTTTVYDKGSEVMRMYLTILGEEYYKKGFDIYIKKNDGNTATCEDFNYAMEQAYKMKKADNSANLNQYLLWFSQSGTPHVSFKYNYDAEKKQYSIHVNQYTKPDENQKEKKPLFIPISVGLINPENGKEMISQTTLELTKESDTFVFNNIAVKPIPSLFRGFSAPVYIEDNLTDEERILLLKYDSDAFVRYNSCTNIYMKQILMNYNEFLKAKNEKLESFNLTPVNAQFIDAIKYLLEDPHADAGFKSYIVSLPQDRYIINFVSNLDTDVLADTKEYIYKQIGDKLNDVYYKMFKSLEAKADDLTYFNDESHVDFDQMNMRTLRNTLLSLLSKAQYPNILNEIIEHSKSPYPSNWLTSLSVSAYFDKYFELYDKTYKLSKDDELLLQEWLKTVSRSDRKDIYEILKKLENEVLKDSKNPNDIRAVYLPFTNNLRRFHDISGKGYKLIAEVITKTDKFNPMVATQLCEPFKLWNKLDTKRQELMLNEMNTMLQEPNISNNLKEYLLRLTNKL

[4] = NIH-3T3 fibroblast cytotoxicity, dose response, cytotoxicity control, cell-based, fluorescence, Alamar Blue, secondary assay (AID 2327); format: functional;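 note: NIH-3T3 mouse fibroblasts cultured with fluconazole at 8 µg/mL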
[5] = tested on: Streptococcus sp. 'group A'; experiment: Streptococcus pyogenes SK(-)GAS viability under kanamycin – luminescence, BacTiterGlo, confirmation, counter-screen for streptokinase expression inhibitor project, dose response (AID 1900); format: functional, organism-based
Streptokinase A = target: T2, Streptokinase A (Streptococcus pyogenes serotype M1, UniProt P10520); experiment: viability-normalized secreted streptokinase activity reduction – plasminogen activation absorbance, OD405, dose response (AID 1914); format: functional, Streptococcus pyogenes M1 GAS;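 note: secreted streptokinase activity via plasminogen activation per viability signal from cell pellet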
T2 sequence (P10520 whole entry): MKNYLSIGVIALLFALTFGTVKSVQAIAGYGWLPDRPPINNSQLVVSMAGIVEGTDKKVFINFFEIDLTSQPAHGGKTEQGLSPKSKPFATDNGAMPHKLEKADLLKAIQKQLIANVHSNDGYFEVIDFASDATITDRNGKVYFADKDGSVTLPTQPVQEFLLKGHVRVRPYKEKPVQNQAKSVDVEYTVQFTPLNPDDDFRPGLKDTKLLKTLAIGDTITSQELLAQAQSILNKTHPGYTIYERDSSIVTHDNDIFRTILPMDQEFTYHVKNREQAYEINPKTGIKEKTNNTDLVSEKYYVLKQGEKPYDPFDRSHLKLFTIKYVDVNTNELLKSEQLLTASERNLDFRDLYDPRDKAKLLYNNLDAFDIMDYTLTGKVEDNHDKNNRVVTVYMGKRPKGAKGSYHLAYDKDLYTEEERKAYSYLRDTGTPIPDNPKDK

[6] = fluconazole-exposed Candida albicans growth modulators – fluorescence, retest, confirmation (AID 2467); format: functional, cell-based
Streptococcus = experiment: GAS UMAA2166 growth inhibition – luminescence, BacTiterGlo, counter-screen for streptokinase expression inhibitor project, dose response (AID 1915); format: functional, organism-based;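 note: potency for reduction of bacterial viability or growth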
[7] = target: T3, Apoptotic protease-activating factor 1 (Homo sapiens, UniProt O14727); format: functional
T3 sequence (O14727 whole entry): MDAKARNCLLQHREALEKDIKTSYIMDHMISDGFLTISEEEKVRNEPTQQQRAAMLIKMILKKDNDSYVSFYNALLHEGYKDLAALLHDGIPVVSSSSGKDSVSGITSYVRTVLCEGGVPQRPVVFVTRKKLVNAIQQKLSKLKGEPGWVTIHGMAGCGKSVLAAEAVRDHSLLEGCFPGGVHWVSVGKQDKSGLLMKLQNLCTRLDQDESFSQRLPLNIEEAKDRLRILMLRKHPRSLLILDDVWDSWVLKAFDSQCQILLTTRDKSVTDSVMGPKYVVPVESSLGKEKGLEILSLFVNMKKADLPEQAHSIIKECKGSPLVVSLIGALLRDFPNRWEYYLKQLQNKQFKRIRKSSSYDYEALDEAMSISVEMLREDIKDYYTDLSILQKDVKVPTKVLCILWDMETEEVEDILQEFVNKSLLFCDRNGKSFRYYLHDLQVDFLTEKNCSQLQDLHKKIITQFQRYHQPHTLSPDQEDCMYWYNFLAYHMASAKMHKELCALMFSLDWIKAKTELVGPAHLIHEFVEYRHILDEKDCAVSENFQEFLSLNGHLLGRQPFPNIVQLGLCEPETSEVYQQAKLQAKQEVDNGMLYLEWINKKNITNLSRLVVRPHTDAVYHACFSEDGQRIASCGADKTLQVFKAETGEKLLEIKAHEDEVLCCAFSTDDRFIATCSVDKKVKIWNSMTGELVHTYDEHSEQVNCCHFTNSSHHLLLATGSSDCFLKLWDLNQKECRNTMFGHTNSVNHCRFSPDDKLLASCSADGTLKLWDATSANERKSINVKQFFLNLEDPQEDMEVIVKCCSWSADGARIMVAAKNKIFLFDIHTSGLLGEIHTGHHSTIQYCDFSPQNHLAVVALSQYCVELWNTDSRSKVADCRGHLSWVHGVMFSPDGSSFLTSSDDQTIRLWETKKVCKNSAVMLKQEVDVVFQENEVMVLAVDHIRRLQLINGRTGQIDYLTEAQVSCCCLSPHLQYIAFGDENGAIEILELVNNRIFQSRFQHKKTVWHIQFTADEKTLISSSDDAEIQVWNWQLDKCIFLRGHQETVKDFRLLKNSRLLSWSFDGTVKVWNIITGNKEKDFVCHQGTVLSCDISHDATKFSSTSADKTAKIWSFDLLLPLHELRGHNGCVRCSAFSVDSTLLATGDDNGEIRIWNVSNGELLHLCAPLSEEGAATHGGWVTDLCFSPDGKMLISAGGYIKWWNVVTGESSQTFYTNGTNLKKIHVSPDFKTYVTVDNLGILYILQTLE

[8] = target: T4, Tyrosyl-DNA phosphodiesterase 2 (Homo sapiens, UniProt O95551); experiment: potency against TDP2 phosphodiesterase activity – biochemical, epi absorbance, IC50, dose response (AID 743297)
T4 sequence (O95551 whole entry): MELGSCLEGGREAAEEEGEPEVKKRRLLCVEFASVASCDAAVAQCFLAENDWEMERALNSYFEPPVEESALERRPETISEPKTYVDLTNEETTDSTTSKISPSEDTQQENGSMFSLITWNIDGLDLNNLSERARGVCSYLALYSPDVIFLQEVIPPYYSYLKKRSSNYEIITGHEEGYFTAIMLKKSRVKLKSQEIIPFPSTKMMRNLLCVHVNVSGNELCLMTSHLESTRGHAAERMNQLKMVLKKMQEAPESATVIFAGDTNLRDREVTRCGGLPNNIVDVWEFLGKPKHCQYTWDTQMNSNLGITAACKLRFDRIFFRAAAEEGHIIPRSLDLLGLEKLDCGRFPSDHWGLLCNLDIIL

SUMO-activating enzyme [9] = target: T5, SUMO-activating enzyme (Homo sapiens, UniProt Q9UBT2); experiment: blockers of UBC9-mediated SUMO conjugation – biochemical, AlphaScreen, SUMOylation inhibitor project, confirmation (AID 2018); format: functional
T5 sequence (Q9UBE0 whole entry): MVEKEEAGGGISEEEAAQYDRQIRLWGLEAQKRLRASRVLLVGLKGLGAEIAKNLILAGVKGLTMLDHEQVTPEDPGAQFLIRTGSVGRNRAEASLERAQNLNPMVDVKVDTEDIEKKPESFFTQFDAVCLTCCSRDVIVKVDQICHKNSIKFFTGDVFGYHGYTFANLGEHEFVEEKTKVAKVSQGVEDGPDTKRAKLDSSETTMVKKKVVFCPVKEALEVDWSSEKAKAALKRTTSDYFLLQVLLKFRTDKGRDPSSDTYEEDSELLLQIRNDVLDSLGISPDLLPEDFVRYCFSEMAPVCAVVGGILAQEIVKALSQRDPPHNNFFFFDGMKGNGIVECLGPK
T5 sequence (Q9UBT2 whole entry): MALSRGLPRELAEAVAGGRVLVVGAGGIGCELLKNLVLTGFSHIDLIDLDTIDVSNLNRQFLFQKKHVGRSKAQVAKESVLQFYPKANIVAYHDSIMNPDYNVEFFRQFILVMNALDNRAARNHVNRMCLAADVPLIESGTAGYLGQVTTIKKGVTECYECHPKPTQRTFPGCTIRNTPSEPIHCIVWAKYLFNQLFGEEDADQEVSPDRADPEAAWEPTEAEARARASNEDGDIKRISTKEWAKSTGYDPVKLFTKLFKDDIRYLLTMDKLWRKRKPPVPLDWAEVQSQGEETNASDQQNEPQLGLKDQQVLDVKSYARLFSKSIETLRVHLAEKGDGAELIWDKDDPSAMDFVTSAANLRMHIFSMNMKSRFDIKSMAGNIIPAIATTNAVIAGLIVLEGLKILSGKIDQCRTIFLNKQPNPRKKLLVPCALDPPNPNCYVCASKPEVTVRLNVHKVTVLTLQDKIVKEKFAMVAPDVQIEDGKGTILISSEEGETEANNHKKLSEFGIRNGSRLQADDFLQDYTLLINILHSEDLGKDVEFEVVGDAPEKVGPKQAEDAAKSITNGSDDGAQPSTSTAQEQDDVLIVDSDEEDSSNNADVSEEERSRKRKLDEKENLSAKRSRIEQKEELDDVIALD

SUMO-activating enzyme [10] = target: T5, SUMO-activating enzyme; experiment: blockers of SAE1/SAE2–UBC9 SUMO transfer – biochemical, HTRF, uHTS, primary screen (AID 2006); format: protein-complex assay
[11] = viability loss in Vero cells – cytotoxicity control for Vif-APOBEC3G degradation inhibitor project, dose response (AID 1117358); format: functional; settings: Vero

In the case of `CCN(Cc1ccc(C#CCCO)cc1)CC1CCCN(CCc2cccc(F)c2)C1` (stereo not given), the EC50 [1] is reported as < 0.1 µM (active), the EC50 [2] is reported as 8.84 µM (active) and the EC50 (cells) is reported as 0.369 µM (active).
In the case of `CCOc1ccc(NC(=O)N(C2CCCCCC2)C2CCN(C(C)=O)CC2)cc1`, the IC50 [3] is reported as > 100 µM (active).
In the case of `CC(=O)c1cccc(CN2CCCC(CCC(=O)NCc3ccccc3F)C2)c1` (stereo not given), the EC50 [1] is reported as < 0.1 µM (active), the EC50 [2] is reported as > 60 µM (not active) and the EC50 (cells) is reported as 0.04 µM (active).
With `O=C(O)Cc1c(O)nc2ccc(Br)cc2c1-c1ccccc1Cl` the IC50 (Aminopeptidase N) was 23.1 µM (active).
With `Oc1c(Br)cc(Br)cc1CNc1cccc2cccnc12` the EC50 [4] was 101 µM (active), the EC50 [5] was 6.08 µM (active) and the EC50 (Streptokinase A) was > 150 µM (not active). The EC50 [6] was > 38 µM (not active), the EC50 (Streptococcus) was 9.25 µM (active) and the IC50 [7] was 40.2 µM (active). For the same compound, the IC50 [8] was > 128 µM (inactive).
For `Cc1ccc(S(=O)(=O)n2ccc(OC(=O)c3cccs3)n2)cc1`, the IC50 (SUMO-activating enzyme [9]) was 3.61 µM (active) and the IC50 (SUMO-activating enzyme [10]) was 94.8 µM (active).
With `O=C(Nc1nccs1)c1cn(-c2ccccc2)nc1-c1ccccc1` the IC50 [3] was > 100 µM (active).
With `Cc1ccc(-c2nn(C)c(=O)c3ccccc23)cc1CNC(=O)c1ccccc1` the IC50 (Aminopeptidase N) was 7.39 µM (active).
With `Cc1cccc(N2CCN(C(=O)c3ccncc3)CC2)c1C` the CC50 [11] was > 40 µM (active).
